Counter-ions that a name gives are not always drawn. Positions of bridges follow the written chain, without caps; N, C: chain ends. Non-standard residues stand in square brackets, D forms with d. Residues, ends and D or L forms follow the SMILES beside them. hArg = N=C(N)NCCCC[C@H](N)C(=O)O; Mpa = O=C(O)CCS
Legend:
[1] = molecular target: T1, ATP-binding cassette sub-family C member 4 (Homo sapiens, UniProt O15439); test: Inhibition of human MRP4 overexpressed in Sf9 cell membrane vesicles assessed as uptake of [3H]-estradiol-17beta-D-glucuronide in presence of ATP and GSH measured after 20 mins by membrane vesicle transport assay; type: ADME, cell-based
T1 sequence (O15439 whole entry): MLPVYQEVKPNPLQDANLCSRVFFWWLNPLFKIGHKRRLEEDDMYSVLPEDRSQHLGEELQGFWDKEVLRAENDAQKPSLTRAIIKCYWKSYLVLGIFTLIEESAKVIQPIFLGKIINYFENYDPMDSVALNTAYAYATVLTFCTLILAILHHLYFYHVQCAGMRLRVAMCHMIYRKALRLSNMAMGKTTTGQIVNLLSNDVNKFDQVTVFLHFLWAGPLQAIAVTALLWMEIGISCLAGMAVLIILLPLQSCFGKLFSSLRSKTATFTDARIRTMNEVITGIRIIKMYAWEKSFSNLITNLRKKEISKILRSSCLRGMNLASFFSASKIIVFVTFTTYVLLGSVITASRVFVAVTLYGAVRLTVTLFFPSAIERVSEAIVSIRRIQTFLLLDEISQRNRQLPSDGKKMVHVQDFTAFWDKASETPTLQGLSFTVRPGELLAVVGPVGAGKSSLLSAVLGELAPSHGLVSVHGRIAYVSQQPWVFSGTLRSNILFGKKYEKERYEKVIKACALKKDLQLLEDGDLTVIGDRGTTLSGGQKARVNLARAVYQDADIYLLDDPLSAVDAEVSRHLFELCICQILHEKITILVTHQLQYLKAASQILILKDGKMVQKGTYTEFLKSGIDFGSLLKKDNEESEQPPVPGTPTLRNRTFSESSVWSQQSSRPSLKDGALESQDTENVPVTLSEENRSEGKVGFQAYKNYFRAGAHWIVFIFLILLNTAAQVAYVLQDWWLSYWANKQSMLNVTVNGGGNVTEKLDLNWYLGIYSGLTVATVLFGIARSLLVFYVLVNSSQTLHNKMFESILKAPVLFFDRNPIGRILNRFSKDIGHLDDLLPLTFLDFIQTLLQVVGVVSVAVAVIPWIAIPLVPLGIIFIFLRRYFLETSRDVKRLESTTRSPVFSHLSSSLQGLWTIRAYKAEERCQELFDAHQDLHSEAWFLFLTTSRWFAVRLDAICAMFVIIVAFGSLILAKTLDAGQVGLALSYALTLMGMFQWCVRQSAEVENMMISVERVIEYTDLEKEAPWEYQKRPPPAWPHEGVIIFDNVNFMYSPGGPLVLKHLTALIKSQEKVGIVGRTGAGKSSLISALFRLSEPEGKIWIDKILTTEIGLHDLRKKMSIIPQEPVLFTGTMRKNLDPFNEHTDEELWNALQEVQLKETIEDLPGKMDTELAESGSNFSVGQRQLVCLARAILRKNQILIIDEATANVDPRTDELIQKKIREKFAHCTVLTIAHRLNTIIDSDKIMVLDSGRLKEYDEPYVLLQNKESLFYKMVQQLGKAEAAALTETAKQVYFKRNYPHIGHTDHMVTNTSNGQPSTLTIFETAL

Bile salt export pump = Bile salt export pump (Homo sapiens, UniProt O95342); test: Inhibition of human BSEP overexpressed in Sf9 cell membrane vesicles assessed as uptake of [3H]-taurocholate in presence of ATP measured after 15 to 20 mins by membrane vesicle transport assay; type: ADME, cell-based
[2] = molecular target: ATP-binding cassette sub-family C member 3 (Homo sapiens, UniProt O15438); test: Inhibition of human MRP3 overexpressed in Sf9 insect cell membrane vesicles assessed as uptake of [3H]-estradiol-17beta-D-glucuronide in presence of ATP and GSH measured after 10 mins by membrane vesicle transport assay; type: ADME, cell-based
[3] = molecular target: ATP-binding cassette sub-family C member 2 (Homo sapiens, UniProt Q92887); test: Inhibition of human MRP2 overexpressed in Sf9 cell membrane vesicles assessed as uptake of [3H]-estradiol-17beta-D-glucuronide in presence of ATP and GSH measured after 20 mins by membrane vesicle transport assay
Chain of ATP-binding cassette sub-family C member 2 (Q92887 whole entry): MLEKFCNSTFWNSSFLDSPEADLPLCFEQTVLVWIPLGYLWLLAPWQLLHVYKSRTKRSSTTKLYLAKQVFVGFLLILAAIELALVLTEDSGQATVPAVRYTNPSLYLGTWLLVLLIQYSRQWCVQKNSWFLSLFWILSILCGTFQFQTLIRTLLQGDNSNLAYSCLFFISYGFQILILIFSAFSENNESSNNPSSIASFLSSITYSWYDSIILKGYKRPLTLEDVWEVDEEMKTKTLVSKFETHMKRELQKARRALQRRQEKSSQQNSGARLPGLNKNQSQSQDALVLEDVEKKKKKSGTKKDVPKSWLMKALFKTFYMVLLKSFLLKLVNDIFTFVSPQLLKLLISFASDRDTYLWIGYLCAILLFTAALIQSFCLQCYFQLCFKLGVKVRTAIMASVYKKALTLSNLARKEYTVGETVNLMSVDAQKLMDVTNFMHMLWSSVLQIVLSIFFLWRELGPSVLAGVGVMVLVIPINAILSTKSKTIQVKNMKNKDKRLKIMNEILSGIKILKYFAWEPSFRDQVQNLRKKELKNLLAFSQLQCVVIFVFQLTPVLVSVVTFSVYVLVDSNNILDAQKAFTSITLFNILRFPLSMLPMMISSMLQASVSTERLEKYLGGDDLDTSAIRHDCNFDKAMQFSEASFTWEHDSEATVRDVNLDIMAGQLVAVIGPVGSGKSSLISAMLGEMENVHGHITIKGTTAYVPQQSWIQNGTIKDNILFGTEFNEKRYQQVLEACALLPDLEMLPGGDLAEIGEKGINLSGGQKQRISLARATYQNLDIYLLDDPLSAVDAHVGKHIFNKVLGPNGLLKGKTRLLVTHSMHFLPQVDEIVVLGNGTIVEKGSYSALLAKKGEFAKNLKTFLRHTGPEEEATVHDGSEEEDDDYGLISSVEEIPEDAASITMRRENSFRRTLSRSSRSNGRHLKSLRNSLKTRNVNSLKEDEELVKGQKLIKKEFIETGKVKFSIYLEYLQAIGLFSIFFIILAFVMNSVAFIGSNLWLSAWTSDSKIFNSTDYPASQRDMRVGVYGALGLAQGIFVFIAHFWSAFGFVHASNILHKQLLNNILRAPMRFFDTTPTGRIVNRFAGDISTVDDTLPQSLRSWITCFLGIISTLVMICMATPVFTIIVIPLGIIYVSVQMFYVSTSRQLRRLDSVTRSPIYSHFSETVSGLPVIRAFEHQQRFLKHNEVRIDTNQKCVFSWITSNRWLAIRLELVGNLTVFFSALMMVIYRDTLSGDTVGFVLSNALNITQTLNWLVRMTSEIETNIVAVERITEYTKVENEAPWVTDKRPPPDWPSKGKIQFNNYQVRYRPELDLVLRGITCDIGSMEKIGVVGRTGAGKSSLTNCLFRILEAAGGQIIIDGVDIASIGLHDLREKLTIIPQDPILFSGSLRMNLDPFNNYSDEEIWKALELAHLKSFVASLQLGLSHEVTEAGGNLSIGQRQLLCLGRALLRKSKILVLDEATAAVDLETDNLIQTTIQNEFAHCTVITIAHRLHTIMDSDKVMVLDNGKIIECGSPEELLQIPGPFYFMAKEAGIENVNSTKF

Chain of ATP-binding cassette sub-family C member 3 (O15438 whole entry): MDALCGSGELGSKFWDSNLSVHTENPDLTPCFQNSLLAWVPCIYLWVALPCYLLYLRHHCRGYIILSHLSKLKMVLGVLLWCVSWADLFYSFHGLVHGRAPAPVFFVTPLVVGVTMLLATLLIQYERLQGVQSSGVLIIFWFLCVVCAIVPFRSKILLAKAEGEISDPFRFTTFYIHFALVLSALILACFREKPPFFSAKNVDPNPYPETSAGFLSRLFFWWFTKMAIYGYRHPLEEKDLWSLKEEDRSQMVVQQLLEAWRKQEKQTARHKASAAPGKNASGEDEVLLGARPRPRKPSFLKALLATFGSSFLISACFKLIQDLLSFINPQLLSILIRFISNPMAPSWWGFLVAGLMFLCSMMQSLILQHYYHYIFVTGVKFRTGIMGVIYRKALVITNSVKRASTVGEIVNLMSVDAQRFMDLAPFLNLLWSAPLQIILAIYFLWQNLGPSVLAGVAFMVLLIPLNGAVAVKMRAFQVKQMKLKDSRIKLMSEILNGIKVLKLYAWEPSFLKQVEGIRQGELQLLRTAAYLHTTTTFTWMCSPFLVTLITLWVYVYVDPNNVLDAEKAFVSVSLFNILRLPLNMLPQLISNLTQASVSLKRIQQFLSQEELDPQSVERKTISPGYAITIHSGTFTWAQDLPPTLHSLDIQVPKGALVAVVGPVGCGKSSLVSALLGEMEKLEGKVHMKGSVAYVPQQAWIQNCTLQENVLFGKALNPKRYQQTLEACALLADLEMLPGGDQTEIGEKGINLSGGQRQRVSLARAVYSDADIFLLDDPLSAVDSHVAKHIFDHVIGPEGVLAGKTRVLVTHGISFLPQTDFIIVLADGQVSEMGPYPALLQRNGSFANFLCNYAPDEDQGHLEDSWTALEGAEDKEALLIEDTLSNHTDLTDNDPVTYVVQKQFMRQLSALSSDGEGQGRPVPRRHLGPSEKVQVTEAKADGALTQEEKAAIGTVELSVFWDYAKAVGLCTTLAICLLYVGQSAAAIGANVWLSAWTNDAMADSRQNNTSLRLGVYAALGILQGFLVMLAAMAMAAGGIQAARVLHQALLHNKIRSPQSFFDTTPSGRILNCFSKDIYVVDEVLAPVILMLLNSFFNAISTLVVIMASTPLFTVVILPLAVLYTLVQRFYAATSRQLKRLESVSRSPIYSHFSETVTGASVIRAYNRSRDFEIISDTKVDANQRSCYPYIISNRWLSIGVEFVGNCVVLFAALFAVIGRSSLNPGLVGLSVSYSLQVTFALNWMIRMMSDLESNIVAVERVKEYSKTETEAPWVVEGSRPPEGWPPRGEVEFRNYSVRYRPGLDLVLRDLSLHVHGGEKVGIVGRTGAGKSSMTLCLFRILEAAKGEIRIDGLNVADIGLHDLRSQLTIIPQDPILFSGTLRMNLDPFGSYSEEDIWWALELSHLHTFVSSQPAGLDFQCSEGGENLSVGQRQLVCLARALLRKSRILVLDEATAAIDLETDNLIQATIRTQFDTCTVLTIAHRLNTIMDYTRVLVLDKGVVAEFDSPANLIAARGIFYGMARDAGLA
Chain of Bile salt export pump (O95342 whole entry): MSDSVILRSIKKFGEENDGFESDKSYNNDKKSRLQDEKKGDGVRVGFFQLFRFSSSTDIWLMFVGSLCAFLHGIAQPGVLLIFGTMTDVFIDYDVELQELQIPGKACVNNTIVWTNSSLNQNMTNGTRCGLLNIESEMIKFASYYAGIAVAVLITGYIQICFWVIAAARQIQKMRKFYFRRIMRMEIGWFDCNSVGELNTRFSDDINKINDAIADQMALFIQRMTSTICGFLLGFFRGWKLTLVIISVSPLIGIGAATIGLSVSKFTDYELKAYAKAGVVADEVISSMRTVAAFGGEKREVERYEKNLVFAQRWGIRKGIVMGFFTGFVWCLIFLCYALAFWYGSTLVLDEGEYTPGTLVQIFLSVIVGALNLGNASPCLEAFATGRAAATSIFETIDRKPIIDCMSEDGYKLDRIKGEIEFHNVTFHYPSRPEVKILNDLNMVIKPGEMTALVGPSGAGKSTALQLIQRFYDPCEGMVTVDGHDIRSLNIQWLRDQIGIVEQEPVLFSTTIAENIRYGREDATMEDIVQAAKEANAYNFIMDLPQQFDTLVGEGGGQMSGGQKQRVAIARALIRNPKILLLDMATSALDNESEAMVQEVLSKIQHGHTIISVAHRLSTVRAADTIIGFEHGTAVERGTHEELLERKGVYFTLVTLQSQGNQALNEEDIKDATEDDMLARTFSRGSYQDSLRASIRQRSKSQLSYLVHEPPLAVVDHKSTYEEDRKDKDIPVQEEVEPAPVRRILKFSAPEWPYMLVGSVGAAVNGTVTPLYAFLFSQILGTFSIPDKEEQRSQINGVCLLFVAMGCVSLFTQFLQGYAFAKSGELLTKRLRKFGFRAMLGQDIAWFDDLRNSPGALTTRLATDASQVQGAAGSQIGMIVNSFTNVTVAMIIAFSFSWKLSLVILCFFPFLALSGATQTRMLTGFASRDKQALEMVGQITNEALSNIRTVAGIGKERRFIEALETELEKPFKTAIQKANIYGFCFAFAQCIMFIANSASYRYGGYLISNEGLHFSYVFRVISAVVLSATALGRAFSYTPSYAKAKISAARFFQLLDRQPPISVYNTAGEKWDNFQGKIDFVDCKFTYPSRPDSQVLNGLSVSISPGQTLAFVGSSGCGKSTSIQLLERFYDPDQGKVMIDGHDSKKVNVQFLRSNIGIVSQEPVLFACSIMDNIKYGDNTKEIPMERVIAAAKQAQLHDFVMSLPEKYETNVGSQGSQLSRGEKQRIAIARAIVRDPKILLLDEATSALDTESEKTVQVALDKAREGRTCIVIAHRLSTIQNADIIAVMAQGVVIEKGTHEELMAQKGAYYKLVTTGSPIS

| Structure (SMILES) | IC50 [1] | IC50 (Bile salt export pump) | IC50 [2] | IC50 [3] |
| --- | --- | --- | --- | --- |
| CCCc1cc(=O)[nH]c(=S)[nH]1 [PROPYLTHIOURACIL] | > 133 µM | > 133 µM | > 133 µM | > 133 µM |
| CCC(=O)O[C@]1(C(=O)SCF)[C@H](C)C[C@H]2[C@@H]3C[C@H](F)C4=CC(=O)C=C[C@]4(C)[C@@]3(F)[C@@H](O)C[C@@]21C [FLUTICASONE PROPIONATE] | > 133 µM | > 133 µM | > 133 µM | > 133 µM |
| O=[N+]([O-])C(Br)(CO)CO [BRONOPOL] | > 133 µM | > 133 µM | > 133 µM | > 133 µM |
| O=C(NCCO[N+](=O)[O-])c1cccnc1 [NICORANDIL] | > 133 µM | > 133 µM | > 133 µM | > 133 µM |
| CC(C)N(CCC(C(N)=O)(c1ccccc1)c1ccccn1)C(C)C (configuration not stated) [DISOPYRAMIDE] | > 133 µM | > 133 µM | > 133 µM | > 133 µM |
| CCCCC[C@H](O)/C=C/[C@@H]1[C@@H](C/C=C\CCCC(=O)O)[C@@H](O)C[C@H]1O [DINOPROST TROMETHAMINE] | 7.1 µM | […] | […] | […] |
| CC1(C)O[C@@H]2[C@@H](CO[C@@]3(COS(N)(=O)=O)OC(C)(C)O[C@@H]23)O1 [TOPIRAMATE] | > 133 µM | > 133 µM | > 133 µM | > 133 µM |
| O=C1c2c(O)cccc2Cc2cccc(O)c21 [ANTHRALIN] | > 133 µM | > 133 µM | > 133 µM | > 133 µM |
| Cc1cnc(C(=O)O)c[n+]1[O-] [ACIPIMOX] | > 133 µM | > 133 µM | > 133 µM | > 133 µM |
| C=CC1=C(C(=O)O)N2C(=O)[C@@H](NC(=O)/C(=N\O)c3csc(N)n3)[C@H]2SC1 | 11.6 µM | > 133 µM | > 133 µM | > 133 µM |
| O=c1[nH]c(=O)n([C@H]2CCCO2)cc1F | > 133 µM | > 133 µM | > 133 µM | > 133 µM |
| CCCCc1ncc(/C=C(\Cc2cccs2)C(=O)O)n1Cc1ccc(C(=O)O)cc1 [EPROSARTAN] | > 133 µM | > 133 µM | 6.65 µM | 57.9 µM |
| CN(C)CCOc1ccc(/C(=C(/CCCl)c2ccccc2)c2ccccc2)cc1 [TOREMIFENE CITRATE] | > 133 µM | 115 µM | > 133 µM | > 133 µM |
| CC[C@H](C)C(=O)O[C@H]1CCC=C2C=C[C@H](C)[C@H](CC[C@@H]3C[C@@H](O)CC(=O)O3)[C@H]21 [MEVASTATIN] | > 133 µM | 27 µM | > 133 µM | > 133 µM |
| C[C@]12CC[C@H](O)CC1=CC[C@@H]1[C@@H]2CC[C@]2(C)C(c3cccnc3)=CC[C@@H]12 [ABIRATERONE] | > 133 µM | > 133 µM | > 133 µM | > 133 µM |
| CNS(=O)(=O)Cc1ccc2[nH]cc(CCN(C)C)c2c1 | > 133 µM | > 133 µM | > 133 µM | > 133 µM |
| C[C@@H](O)[C@H]1C(=O)N2C(C(=O)O)=C(S[C@@H]3CN[C@H](C(=O)Nc4cccc(C(=O)O)c4)C3)[C@H](C)[C@H]12 | > 133 µM | > 133 µM | > 133 µM | 56.2 µM |
| CCC[C@H](N[C@@H](C)C(=O)N1[C@H](C(=O)O)C[C@@H]2CCCC[C@@H]21)C(=O)OCC [PERINDOPRIL ERBUMINE] | > 133 µM | > 133 µM | > 133 µM | > 133 µM |
| CC(=O)NS(=O)(=O)c1ccc(N)cc1 | > 133 µM | > 133 µM | > 133 µM | > 133 µM |

| Structure (SMILES) | IC50 [1] | IC50 (Bile salt export pump) | IC50 [2] | IC50 [3] |
| --- | --- | --- | --- | --- |
| Cc1nnc(SCC2=C(C(=O)O)N3C(=O)[C@@H](NC(=O)Cn4cnnn4)[C@H]3SC2)s1 [CEFAZOLIN SODIUM] | 54.2 µM | > 133 µM | > 133 µM | > 133 µM |
| CC(C)NCC(O)COc1ccc(COCCOC(C)C)cc1 (configuration not stated) [BISOPROLOL FUMARATE] | > 133 µM | > 133 µM | > 133 µM | > 133 µM |
| OCCN1CCN(CCCN2c3ccccc3Sc3ccc(Cl)cc32)CC1 [PERPHENAZINE] | > 133 µM | > 133 µM | > 133 µM | > 133 µM |
| Clc1cccc(N2CCNCC2)c1 [CHLOROPHENYLPIPERAZINE] | > 133 µM | > 133 µM | > 133 µM | > 133 µM |
| C[C@@H](O)[C@H]1C(=O)N2C(C(=O)O)=C(S[C@@H]3CN[C@H](C(=O)N(C)C)C3)[C@H](C)[C@H]12 [MEROPENEM] | > 133 µM | > 133 µM | > 133 µM | > 133 µM |
| O=C(O)CCCc1ccc(N(CCCl)CCCl)cc1 [CHLORAMBUCIL] | > 133 µM | > 133 µM | > 133 µM | > 133 µM |
| CN(C)CCC(c1ccc(Cl)cc1)c1ccccn1 (configuration not stated) [CHLORPHENIRAMINE] | > 133 µM | > 133 µM | > 133 µM | > 133 µM |
| CC1(C)O[C@@H]2C[C@H]3[C@@H]4CCC5=CC(=O)C=C[C@]5(C)[C@@]4(F)[C@@H](O)C[C@]3(C)[C@]2(C(=O)CO)O1 [TRIAMCINOLONE ACETONIDE] | > 133 µM | > 133 µM | > 133 µM | > 133 µM |
| CC[C@@]1(O)C(=O)OCc2c1cc1n(c2=O)Cc2cc3c([N+](=O)[O-])cccc3nc2-1 [RUBITECAN] | 5.1 µM | > 133 µM | 10.2 µM | 60.5 µM |
| COc1cc([C@@H]2c3cc4c(cc3[C@@H](O[C@@H]3O[C@@H]5CO[C@@H](C)O[C@H]5[C@H](O)[C@H]3O)[C@H]3COC(=O)[C@H]23)OCO4)cc(OC)c1OP(=O)(O)O [ETOPOSIDE PHOSPHATE] | > 133 µM | > 133 µM | > 133 µM | > 133 µM |
| Nc1cc(-c2ccncc2)c[nH]c1=O [INAMRINONE] | > 133 µM | > 133 µM | > 133 µM | > 133 µM |
| CNCC[C@@H](Oc1ccccc1C)c1ccccc1 [ATOMOXETINE HYDROCHLORIDE] | > 133 µM | > 133 µM | > 133 µM | > 133 µM |
| Nc1nc2ccc(OC(F)(F)F)cc2s1 [RILUZOLE] | > 133 µM | > 133 µM | > 133 µM | > 133 µM |
| CCN(CC)CCNC(=O)c1cc(S(C)(=O)=O)ccc1OC [TIAPRIDE] | > 133 µM | > 133 µM | > 133 µM | > 133 µM |
| CN(C)C(=O)Oc1cccc([N+](C)(C)C)c1 [NEOSTIGMINE] | > 133 µM | > 133 µM | > 133 µM | > 133 µM |
| CCn1cc(C(=O)O)c(=O)c2ccc(C)nc21 [NALIDIXIC ACID] | 57.5 µM | > 133 µM | > 133 µM | > 133 µM |
| CO/N=C(\C(=O)N[C@@H]1C(=O)N2C(C(=O)O)=C(COC(C)=O)CS[C@H]12)c1csc(N)n1 [CEFOTAXIME SODIUM] | 24 µM | > 133 µM | > 133 µM | > 133 µM |
| CCCSc1ccc2nc(NC(=O)OC)[nH]c2c1 [ALBENDAZOLE] | > 133 µM | > 133 µM | > 133 µM | > 133 µM |
| N=C(N)NCCCC[C@@H]1NC(=O)CCSSC[C@@H](C(N)=O)NC(=O)[C@@H]2CCCN2C(=O)[C@H](Cc2c[nH]c3ccccc23)NC(=O)[C@H](CC(=O)O)NC(=O)CNC1=O ([Mpa][hArg]GDWPC-NH2; disulfide 1-7) | > 133 µM | > 133 µM | > 133 µM | > 133 µM |

Source: ChEMBL document CHEMBL4028801, “A multifactorial approach to hepatobiliary transporter assessment enables improved therapeutic compound development” (Toxicol Sci, 2013)
